What was measured:
[1] = tested on: neurons in the CA3 region of the hippocampus; assay: Neuron soma size in the hippocampus; format: in vivo, mice
Method: We also measure the effect of cG-2-AllylP treatment on neuron soma size in the hippocampus. Mice are treated with cG-2-AllylP as described above for locomotor activity.

[2] = tested on: Fmr1-K02 mice and wildtype (WT) littermates; assay: Inspection of animals for toxicity in Fragile X studies; format: in vivo; conditions: fmr1-knockout and wild-type mice
Method: Experiments were conducted in accordance with the United Kingdom Animals (Scientific Procedures) Act of 1986. Fmr1-K02 mice and wildtype (WT) littermates were generated on a C57BL/6J background and repeatedly backcrossed onto a C57BL/6J background for more than eight generations and send to Chile by the Jackson's laboratory. Mice were grouping housed (4-6 per cage) and all animals were provided with ad libitum food and water unless otherwise stated. Mice were maintained on a 12 h light/dark cycle (lights off 19:00 to 7:00) in a temperature-controlled environment (21±1° C.).
Animals were inspected for differences in coat appearance, whether any piloerection is present, eye condition (runny eyes or porphyria, ptosis) gait appearance, tremor, tail tone, reactivity to handling, etc.

ATF3 = assay: PBBI in rats: ATF3 Western blotting; format: in vivo; conditions: 24 hrs. after PBBI
Source text: (§1) The unilateral frontal PBBI model, which mimics the ballistic dynamics of a bullet or fragment wound to the head (Williams, 2003; Williams, 2006), was induced by stereotactic insertion of a custom probe through the right frontal cortex. A temporary cavity was formed by the rapid inflation/deflation (i.e. <40 msec) of an elastic balloon attached to the end of the probe. The PBBI apparatus consisted of a computer-controlled hydraulic pressure generator (Mitre Corp McLean, Va.), a PBBI probe and a stereotaxic frame equipped with a custom-designed probe holder as previously described (Lu, 2009; Williams, 2003). The injury severity was determined by the size of the balloon under control of the computerized hydraulic pressure. The balloon diameter calibrated to 0.63 cm expansion represented 10% of the total rat brain volume thus expressing a 10% PBBI. All surgeries were done under anaesthesia. Groups tested: Sham+vehicle, PBBI+vehicle, PBBI+cG-2-AllylP (30 mg/kg by oral gavage, 30 min post-injury, and again once daily until endpoint). AU procedures were approved by the Institutional Animal Care and Use Committee of WRAIR. Animals were housed in a facility accredited by the AAALAC. […]
(§2) Samples were analysed at 24 hr and 3 and 7 days post-injury for all groups (sham+vehicle, PBBI+vehicle, PBBI+cG-2-AllylP). […]

NMDA NR1 subunit = assay: NMDA receptor-1 immunohistochemical staining of hippocampus; format: in vivo, male Wistar rats; conditions: CA1 and CA3; post-treatment
Method: Aged rats (male Wistar rats, 18-20 months old) were divided into four groups: two vehicle-treated (groups 1 and 3) and two G-2-AllylP treated (groups 2 and 4) (all groups n=6-8). Cyclic G-2-AllylP was synthesised by the Department of Medicinal Chemistry and dissolved in normal saline before the treatment. On day 1 a single dose of cyclic G-2-AllylP was given centrally (20 ng/animal, i.c.v.) to the animals in groups 2 and 4; saline was administered to groups 1 and 3. The memory tests using Novel Object Recognition Test started either on day 3 (groups 1 and 2) or 24 (groups 3 and 4) after the treatment. On the completion of the NORT, the rats were killed with an overdose of sodium pentobarbital and were perfused transcardially with normal saline followed by 10% formalin. Tissues collected at day 7 in groups 1 and 2, and at day 28 from groups 3 and 4. The brains were kept in the same fixative for a minimum of 2 days before being processed using a standard paraffin embedding procedure. Briefly, small blocks (10×10×3 mm) of tissue were fixed for up to 24 hrs. The blocks were then infiltrated and embedded with paraffin and cut in ribbons and mounted on slides. Slides were then stored until immunostaining was commenced. Synaptogenesis in brain tissue was examined using immunohistochemical staining. […]

[3] = tested on: heterozygous Shank3-deficient mice; assay: Shank3-deficient mice: olfactory habituation/dishabituation; format: in vivo; conditions: all 4 groups
Method: 1 to 3 month old wild-type and heterozygous Shank3-deficient mice are divided into 4 treatment groups: placebo treated wild-type, placebo treated Shank3-deficient group and two Shank3-deficient cG-2-AllylP treated groups. The animals are given placebo (water) or cG-2-AllylP formulated in water administered orally, b.i.d for 14 days. cG-2-AllylP is administered at two doses: 15 or 60 mg/kg.
Olfactory habituation/dishabituation testing is conducted in male and female mice for each group. The methodology is as previously described (Silverman et al 2010, Yang et al 2009 and Silverman et al 2010). Non-social and social odors are presented on a series of cotton swabs inserted into the home cage sequentially, each for 2 min, in the following order; water, water, water (distilled water); almond, almond, almond (1:100 dilution almond extract); banana, banana, banana (1:100 dilution artificial banana flavouring); social 1, social 1, social 1 (swiped from the bottom of a cage housing unfamiliar sex-matched B6 mice); and social 2, social 2, social 2 (swiped from the bottom of a second cage housing a different group of unfamiliar sex-matched 129/SvImJ mice). One-way repeated measures ANOVA is performed within each treatment group for each set of habituation events and each dishabituation event, followed by a Tukey post hoc test.

BCL2 = assay: PBBI in rats: BCL2 Western blotting; format: in vivo; conditions: 24 hr, 3 and 7 days after PBBI
Source text: as §1, §2

## C=CC[C@]12CCCN1C(=O)CNC2=O [cG-2-AllylP, (8aS)-Allyl-hexahydropyrrolo[1,2-a]pyrazine-1,4-dione]
[1]; KO animals
  average soma size: increases average soma size in KO animals
[1]; wild type animals
  soma size: little or no effect on soma size in wild type animals
[2]
  toxicity (coat, piloerection, eyes, gait, tremor, tail tone, reactivity): No instances of toxicity have been observed
ATF3
  ATF3 expression: decreased ATF3 at 24 hrs. after PBBI
NMDA NR1 subunit
  changes in the NMDA receptors: not so pronounced
[3]
  olfactory habituation: normal levels of habituation
BCL2
  BCL2 levels: did not significantly alter
